Source: ChEMBL document CHEMBL3097992, “Comparative molecular field analysis of fenoterol derivatives interacting with an agonist-stabilized form of the β₂-adrenergic receptor” (Bioorg Med Chem, 2014)
pEC50, pKi: −log10 of the molar value.

What was measured:
[1] = target: T1, Beta-2 adrenergic receptor (Homo sapiens, UniProt P07550); test: Displacement of [3H]-(R,R')-methoxyfenoterol from human beta2 adrenergic receptor expressed in HEK cells by liquid scintillation counting analysis; assay type: cell-based, HEK293
[2] = target: T1, Beta-2 adrenergic receptor; test: Agonist activity at human beta2 adrenergic receptor expressed in HEK293 cells assessed as stimulation of cAMP accumulation; assay type: functional, cell-based
[3] = target: T1, Beta-2 adrenergic receptor; test: Displacement of [3H]-CGP-12177 from human beta2 adrenergic receptor expressed in HEK cells by liquid scintillation counting analysis; assay type: cell-based, HEK293

T1 sequence (P07550 whole entry): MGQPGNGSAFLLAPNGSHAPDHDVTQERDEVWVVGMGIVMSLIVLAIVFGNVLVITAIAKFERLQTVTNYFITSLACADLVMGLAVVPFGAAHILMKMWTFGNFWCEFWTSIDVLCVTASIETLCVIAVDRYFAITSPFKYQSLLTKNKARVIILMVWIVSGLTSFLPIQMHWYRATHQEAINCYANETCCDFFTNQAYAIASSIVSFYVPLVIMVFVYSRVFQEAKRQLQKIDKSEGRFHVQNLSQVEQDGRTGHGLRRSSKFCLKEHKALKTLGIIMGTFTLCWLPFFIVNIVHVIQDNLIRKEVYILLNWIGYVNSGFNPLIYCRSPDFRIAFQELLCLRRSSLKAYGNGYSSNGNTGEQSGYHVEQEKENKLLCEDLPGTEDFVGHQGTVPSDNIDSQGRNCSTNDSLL

| SMILES | pKi [1] | pEC50 [2] | pKi [3] |
| --- | --- | --- | --- |
| CC[C@H](Cc1ccc(O)cc1)NC[C@H](O)c1cc(O)cc(O)c1 | 7.41 | – | – |
| CC[C@@H](Cc1ccc(O)cc1)NC[C@H](O)c1cc(O)cc(O)c1 | 6.53 | – | – |
| CC[C@H](Cc1ccc(OC)cc1)NC[C@H](O)c1cc(O)cc(O)c1 | 7.45 | 8.79 | 6.38 |
| CC[C@@H](Cc1ccc(OC)cc1)NC[C@H](O)c1cc(O)cc(O)c1 | 5.37 | 6.00 | 4.70 |
| COc1ccc(C[C@H](NC[C@H](O)c2cc(O)cc(O)c2)C(C)C)cc1 | 4.53 | 4.58 | < 4.00 |
| COc1ccc(C[C@@H](NC[C@H](O)c2cc(O)cc(O)c2)C(C)C)cc1 | 5.47 | 5.21 | < 4.00 |
